According to patent US6949522B2, “β-2′- or 3′-halonucleosides” (Pharmasset, Inc., priority 2001, dated 2005):
Like-named read-outs stand apart in the source and are kept apart here.

Columns and labels:
[1] = system: mitochondrial cytochrome C oxidase subunit II (COXII) gene; format: cell-based, human; settings: HepG2, 10 μM, 7 days
Source text: The Q-RT-PCR technology was also used to evaluate potential mitochondrial γ-DNA polymerase inhibition by the compounds of the present invention in relevant human cells. […] Since active nucleoside compounds in the triphosphate form lack a 3′-OH, thereby stopping virus replication by chain termination, there is a concern that these nucleoside analogues are also substrates for the human DNA polymerase γ, resulting in inhibition of mitochondrial DNA replication and subsequently toxic side effects (11, 19). In an attempt to provide direct quantifiable data on mitochondrial DNA levels intracellular, a Q-PCR technology was designed and relative quantification of COXII DNA levels were calculated using the comparative Ct method. […] Also, in agreement with previous observations, no changes in normalized mitochondrial DNA levels were observed after FIAU and D4T treatment (6, 8, 23).
(§1) Low passage number HepG2 cells, obtained from American Tissue Culture Collection (ATCC, Manassas, Va.) were seeded at 5,000 cells/well in collagen-coated 96-well plates. Test compounds were added to the media to obtain a final concentration of 10 μM. On culture day 7, cellular nucleic acids were prepared by using commercially available columns (RNeasy 96 kit, Qiagen). […] The mitochondrial cytochrome C oxidase subunit II (COXII) gene and the β-actin or rRNA gene were amplified from 5 μL with a multiplex Q-PCR protocol using the suitable primers and probes for both target and reference (designed using the Primer Express software, Applied Biosystems); • for COXII. • sense primer 5′-[…]-3′ (Sequence 7); • probe 5′-TET-[…]-TAMRA-3′ (Sequence 8); and • antisense probe 5′-[…]-3′ (Sequence 9); • for exon 3 of β-actin (GenBank E01094): • sense primer 5′-[…]-3′ (Sequence 10); • probe 5′-6FAM-[…]-TAMRA-3′ (Sequnece 11); and • antisense probe 5′-[…]-3′ (Sequence 12).
(§2) The rRNA gene primers and probes were purchased from Applied Biosystems. Standard curves using 1-log diluted total HepG2 DNA were linear over more than 5 logs. In addition, efficiencies of target (COXII DNA) and reference (β-actin DNA or rRNA) amplification were approximately equal, because the slope of the ΔCt line (Ct β-actin minus Ct mitochondrial) was less than 0.1 (not shown). Since equal amplification efficiencies were obtained for both genes, the comparative cycle threshold (Ct) method was used to investigate potential inhibition of the mitochondrial DNA polymerase γ. The comparative Ct method uses arithmetic formulas in which the amount of target (COXII gene) is normalized to an endogenous reference (β-actin gene or rRNA gene) and is relative to a calibrator (no drug control at day 7). The arithmetic formula for this approach is given by 2-ΔΔCt (User bulletin # 2, Applied Biosystems).
(§3) In order to study the consequences of possible inhibitory effects of these compounds on host DNA polymerases, nuclear and rnitochondrial DNA levels were quantified and compared to no-treatment controls. Cells were incubated for 7 days with 10 μM of each compound, followed by total nucleic acid extractions and multiplex Q-PCR of the rRNA gene and the mitochondrial COXII gene. Nucleic acids from cells exposed to the control compounds were also amplified in multiplex for mitDNA and the β-actin gene. The results are presented in Table 4 using the comparative Ct method.

β-actin gene = format: cell-based, human; settings: human, 7 days, 10 μM
Experimental: as §1, §2, §3

in vitro [2] = settings: human
Experimental: (§4) After a three day-incubation for HepG2, or 5 days for human PBM cells, cell viability and mitochondrial activity were measured in a colorimetric assay using the MTS- or MTT dye method (Promega, Madison, Wis.).

in vitro [3] = settings: human; remark: listed apart in the source
Experimental: as §4

HBV = HBV Q-PCR assay in HepAD38 (AD38) cells; format: cell-based, hepatitis B virus; settings: AD38 cells, 5-day incubation, HBV DNA in supernatant, read-out: HBV assay Q-PCR EC90
Experimental: The HepAD38 cell line replicates HBV under conditions that can be regulated with tetracycline (12, 15). In the presence of this drug, the cell supernatant is virtually free of viral DNA, but upon the removal of tetracycline from the culture medium, these cells secrete virus-like particle into the supernatant (12). HepAD38 cells were seeded at 5×10^4 cells/well in a 96-well plate in seeding medium (DMEM/F12+10% FBS, 50 μg/mL penicillin, 50 μg/mL streptomycin, 100 μg/mL kanamycin, 400 μg/mL G418, and 0.3 μg/mL tetracycline) and incubated for 2 days at 37° C. in a 5% CO2 humid atmosphere. The seeding media was removed, and cells were washed 3 times with PBS. Cells were then incubated with 200 μL assay medium (DMEM/F12+10% FBS+P/S/K) containing either no compound, test compound, or control drugs at 10 μM. After a 5-day incubation, the cell supernatant was collected and stored at −70° C. until HBV DNA was quantified. HBV DNA was extracted from supernatant using QiaAmp DNA blood Mini kit (Qiagen) and nucleic acids eluted in 200 μL. Viral DNA was detected in Q-PCR. The TaqMan probe and primers were designed using the Primer Express software (Applied Biosystems) and cover highly conserved sequences complementary to the DNA sequences present in HBsAg (24). A total of 5 μL DNA was amplified using reagents and conditions as described by the manufacturer (Applied Biosystems). […]

BVDV (strain NADL) = assay: BVDV Q-RT-PCR assay in MDBK cells; format: cell-based, bovine viral diarrhea virus; settings: MDBK cells, 24 hour incubation, viral RNA in supernatant, read-out: BVDV assay Q-PCR EC90
Experimental: Madin-Darby Bovine Kidney (MDBK) cells were maintained in DMEM/F12 supplemented with 10% heat-inactivated horse serum at 37° C. in a humidified, 5% CO2 atmosphere. Cells were seeded in 96-well plates at 5×10^3 cells/wcll and incubated for 1 hour. BVDV (strain NADL) was used to infect the cells in monolayer at MOI 0.02. After 45 minutes of infection, the viral inoculum was removed and the cells were washed twice. Media or media containing test compound was added to these cells, followed by 24 hour incubation. Cell supernatant fluids were collected, clarified by centrifugation (2 minutes, 3,000 g, room temperature) and viral RNA was prepared (QIAamp Viral RNA mini Kit, Qiagen). Viral RNA was detected in real-time RT-PCR.

HepG2 = assay: Toxicity assay (MTS/MTT dye), HepG2 cells; settings: for Cytotoxicity HepG2 IC30: HepG2, three day-incubation (Table 1)
Experimental: as §4

HIV-1 LAI (wild type) [4] = assay: HIV-1 RT-assay on supernatant of acutely infected human PBM cells, strain LAI; format: cell-based; settings: 5 days, RT activity reduced by 90%
Experimental: (§5) Human PBM cells (1×10^6 cells/T25 flask) were PHA stimulated for 2 or 3 days, and infected with either a wild type (LAI and xxBRU) or a 3TC-resistant (xxBRU 184V) HIV-1 strain at 100 TCID50, as previously described (27). The culture was kept for 5 days in presence of test compounds at serial 1-log dilutions. Subsequently, human PBM cells were removed from the culture supernatant by centrifugation (10 minutes, 400×g, 4° C.). This clarified supernatant was tested either in the RT-assay, or in the Q-RT-PCR assay.
(§6) Virus particles present in a 1 mL aliquot of culture supernatant were concentrated by high-speed centrifugation (2 hours, 20,000×g, 4° C.). The supernatant was then removed and the virus pellet was dispensed into a 100 μL virus solubilization buffer (VSB: 0.5% Triton X-100; 0.8 M NaCl, 0.5 mM phenylmethylsulfonyl, 20% glycerol, 50 mM Tris.HCl pH 7.8). A 10 μL aliquot of RT-VSB was mixed with 75 μL RT cocktail (60 mM Tris.HCl pH 7.8, 12 mM MgCl2, 6 mM DTT, 6 μg/mL poly (rA)n-oligo (dT)10-12, 1.2 mM dATP, and 80 μCi/mL 3H-TTP) and incubated for 2 hours at 37° C. Subsequently 100 μL of 10% TCA was added, and the total amount of incorporated 3H-TTP was determined.
(§7) HIV-1 present in culture supernatant fluids was quantified by two different methodologies: i) the Q-RT-PCR with read-out in log copies/mL; and ii) the endogenous viral RT assay on cell supernatant with read-out in log counts per minute/mL (CPM/mL). Upon addition of antiviral compounds to the culture media, a dose-related decrease in virus production was observed. Although the two methodologies measured different parameters (viral RNA versus active RT enzyme), results were not markedly different from each other. The HIV-1 Q-RT-PCR results were compared with a previously established cell-based antiviral drug evaluation assay (endogenous HIV-1 RT polymerization activity in cell supematant)(27).

HIV-1 xxBRU (wild type) [5] = assay: HIV-1 RT-assay on supernatant of acutely infected human PBM cells, strain xxBRU; format: cell-based; settings: 5 days, RT activity reduced by 90%
Experimental: as §5, §6, §7

[6] = system: 3TC-resistant (xxBRU 184V) HIV-1; assay: HIV-1 RT-assay on supernatant of acutely infected human PBM cells, strain xxBRU 184V; format: cell-based; settings: for EC90: human PBM cells, 5 days, RT activity reduced by 90%, read-out: RT-Assay 184V EC90
Experimental: as §5, §6, §7

HIV-1 LAI (wild type) [7] = assay: HIV-1 Q-RT-PCR assay in human PBM cells, strain LAI; format: cell-based; settings: 5 days, viral RNA reduced by 90%
Experimental: as §5
(§8) Viral RNA present in the culture supernatant was prepared using commercially available columns (QIAamp Viral RNA mini Kit, Qiagen, Valencia, Calif.). Viral RNA was detected in real-time by monitoring increases in fluorescence signal that resulted from degradation of a quenched fluorescent probe molecule following the hybridization of the probe to the arnplified viral DNA (TaqMan 7700 chemistry, Applied Biosystems, Foster City, Calif.). The TaqMan probe and primers were designed using the Primer Express software (Applied Biosystems); they cover highly conserved sequences complementary to an 81 base pair long fragment from the HIV-1 RT gene between codon 230 and 257 of the group MHIV-1 genome; • probe 5′-6FAM-[…]-TAMRA-3′ (Sequence 1) • sense primer: 5′-[…]-3′ (Sequence 2); and • antisense primer 5′-[…]-3′ (Sequence 3).
(§9) A total of 5 μL RNA was RT-amplified using reagents and conditions as described by the manufacturer (Applied Biosystems). […] Copy numbers were calibrated using the Roche Amplicor HIV-1 Monitor test™ (Roche Diagnostics, Branchburg, N.J.) on a 1-log dilution series of a clinical HIV-1 genotype B isolate (attenuated in vitro to obtain a high viral load). The 10-6 diluted sample became positive at threshold cycle (Ct=PCR cycle threshold where a sample becomes detectable)=35.52, which corresponded to 1,410 copies/mL in the Roche monitor HIV-1 version II assay. When validated over a dynamic range of 3 logs of virus, there was excellent correlation (r2˜1) between the two methodologies. […] Therefore, the currently designed primer and probe set allowed reliable quantification of both clinical samples and HIV-1 in vitro preparations.
as §7

HIV-1 xxBRU (wild type) [8] = assay: HIV-1 Q-RT-PCR assay in human PBM cells, strain xxBRU; format: cell-based; settings: 5 days, viral RNA reduced by 90%
Experimental: as §5, §8, §9, §7

[9] = system: 3TC-resistant (xxBRU 184V) HIV-1; assay: HIV-1 Q-RT-PCR assay in human PBM cells, strain xxBRU 184V; format: cell-based; settings: for EC90: human PBM cells, 5 days, viral RNA reduced by 90%, read-out: Q-RT-PCR HIV-1 assay 184V EC90
Experimental: as §5, §8, §9, §7

human PBM cells = assay: Toxicity assay (MTS/MTT dye), human PBM cells; settings: read-out: Cytotoxicity PBM IC50; human PBM cells, 5 days incubation
Experimental: as §4

## Nc1nc2c(ncn2COCCO)c(=O)[nH]1 [ACV, 9-(2-hydroxyethoxymethyl)guanine]
[1]; COXII DNA normalized to β-actin DNA, 2-ΔΔCt
  COXIINβ-actin DNA (range) relative to control: 1.45 (1.34-1.52)
[1]
  Average ΔCt ± SD COXII DNA: −0.37 ± 0.08
  Average ΔΔCt ± SD COXII-β-actin: −0.54 ± 0.06
β-actin gene
  Average ΔCt ± SD β-actin DNA: 0.17 ± 0.01

## NC(=O)c1ncn([C@@H]2O[C@H](CO)[C@@H](O)[C@H]2O)n1 [Ribavirin, 1-β-D-ribofuranosyl-1H-,1,2,4-triazole-3-carboxamide, reference compound]
In vitro [2]
  IC50 at 5 days: > 100 µM
In vitro [3]
  IC50 at 3 days: 90 µM
HBV; Hepatitis B virus, HePAD38, 120 h
  EC90: > 100 µM
BVDV (strain NADL); Bovine viral diarrhea virus isolates and strains
  EC90: 5 µM

## β-D-2′,3′-didehydro-2′,3.′-dideoxy-3′-fluoro-5-fluoro cytidine [Compound 10-F]
HepG2
  Cytotoxicity HepG2 IC30: >100 µM
HIV-1 LAI (wild type) [4]
  EC90: 34.5 µM
HIV-1 xxBRU (wild type) [5]
  EC90: 37.5 µM
[6]
  RT-Assay FI, fold increase (EC90 HIV-1184V/EC90 HIV-1xxBRU): 13.2
  EC90: 494 µM
HIV-1 LAI (wild type) [7]
  EC90: 36.3 µM
HIV-1 xxBRU (wild type) [8]
  EC90: 34.8 µM
[9]
  EC90: > 100 µM
HBV
  EC90: > 100 µM
BVDV (strain NADL)
  EC90: > 200 µM

## Nc1nc(=O)n([C@H]2C=C[C@@H](CO)O2)cc1F [D-D4FC, β-D-2′,3′-didehydro-2′3′-dideoxy-5-fluorocytidine, reference compound]
Human PBM cells
  IC50: 80 µM
HepG2
  Cytotoxicity HepG2 IC30: >100 µM
HepG2; read-out: Cytotoxicity HepG2 IC50, HepG2, three day-incubation (Table 3)
  IC50: > 100 µM
HIV-1 LAI (wild type) [4]
  EC90: 0.18 µM
HIV-1 xxBRU (wild type) [5]
  EC90: 0.08 µM
[6]
  RT-Assay FI, fold increase (EC90 HIV-1184V/EC90 HIV-1xxBRU): 1.9
  EC90: 0.15 µM
HIV-1 LAI (wild type) [7]
  EC90: 0.38 µM
HIV-1 xxBRU (wild type) [8]
  EC90: 0.22 µM
[9]
  Q-RT-PCR HIV-1 assay FI, fold increase (EC90 HIV-1184V/EC90 HIV-1xxBRU): 0.97
  EC90: 0.21 µM
BVDV (strain NADL)
  EC90: > 200 µM

## β-L-2′,3′-didehydro-2′,3.′-dideoxy-3′-fluoro-5-fluoro cytidine [Compound 23-F]
HepG2
  Cytotoxicity HepG2 IC30: >100 µM
HIV-1 LAI (wild type) [4]
  EC90: 0.12 µM
HIV-1 xxBRU (wild type) [5]
  EC90: 0.14 µM
[6]
  RT-Assay FI, fold increase (EC90 HIV-1184V/EC90 HIV-1xxBRU): 479
  EC90: 67 µM
HIV-1 LAI (wild type) [7]
  EC90: 0.09 µM
HIV-1 xxBRU (wild type) [8]
  EC90: 0.16 µM
[9]
  Q-RT-PCR HIV-1 assay FI, fold increase (EC90 HIV-1184V/EC90 HIV-1xxBRU): 333
  EC90: 53 µM
HBV
  EC90: 68 µM
BVDV (strain NADL)
  EC90: > 200 µM
